Reference: the NIST ThermoML archive (doi:10.1016/j.jct.2015.03.001)

Columns and labels:
[1] = refractive index (Na D-line) (dimensionless); xn = mol fraction of the nth substance listed; conditions: 99 kPa, Liquid, Abbe refractometer
[2] = relative permittivity at various frequencies (dimensionless); xn = mol fraction of the nth substance listed; conditions: 99 kPa, Liquid, Frequency=2 MHz, Parallel plate capacitor

CC(C)CCl [1-chloro-2-methylpropane] + CCCCCC
Conditions | refractive index, 283.15 K | refractive index, 298.15 K | refractive index, 313.15 K | relative permittivity, 283.15 K | relative permittivity, 298.15 K | relative permittivity, 313.15 K
[1], x2 = 0 | 1.40354 | 1.39529 | 1.38683 | – | – | –
[1], x2 = 0.0484 | 1.40197 | 1.39371 | 1.38526 | – | – | –
[1], x2 = 0.0984 | 1.40039 | 1.39212 | 1.38366 | – | – | –
[1], x2 = 0.2052 | 1.39725 | 1.38895 | 1.38049 | – | – | –
[1], x2 = 0.3044 | 1.39452 | 1.3862 | 1.37775 | – | – | –
[1], x2 = 0.4034 | 1.39199 | 1.38367 | 1.37523 | – | – | –
[1], x2 = 0.5052 | 1.38961 | 1.3813 | 1.37287 | – | – | –
[1], x2 = 0.6134 | 1.38726 | 1.37897 | 1.37057 | – | – | –
[1], x2 = 0.7019 | 1.38551 | 1.37722 | 1.36883 | – | – | –
[1], x2 = 0.8082 | 1.38355 | 1.37526 | 1.3669 | – | – | –
[1], x2 = 0.908 | 1.38189 | 1.3736 | 1.36525 | – | – | –
[1], x2 = 0.9475 | 1.38129 | 1.37301 | 1.36468 | – | – | –
[2], x2 = 0 | – | – | – | 7.472 | 7.074 | 6.657
[2], x2 = 0.0482 | – | – | – | 7.14 | 6.773 | 6.385
[2], x2 = 0.1006 | – | – | – | 6.784 | 6.442 | 6.082
[2], x2 = 0.1985 | – | – | – | 6.106 | 5.816 | 5.506
[2], x2 = 0.2966 | – | – | – | 5.432 | 5.191 | 4.929
[2], x2 = 0.3985 | – | – | – | 4.768 | 4.573 | 4.358
[2], x2 = 0.5036 | – | – | – | 4.142 | 3.991 | 3.82
[2], x2 = 0.5998 | – | – | – | 3.626 | 3.513 | 3.38
[2], x2 = 0.6993 | – | – | – | 3.149 | 3.064 | 2.966
[2], x2 = 0.8028 | – | – | – | 2.707 | 2.648 | 2.579
[2], x2 = 0.9002 | – | – | – | 2.315 | 2.278 | 2.232
[2], x2 = 0.9462 | – | – | – | 2.129 | 2.102 | 2.068
